In US20230303570A1, “KINASE INHIBITORS AND USES THEREOF” (ABM Therapeutics Corporation, priority 2020, published 2023) one finds IC50 data, which are given here for 21 compounds.

A word on the IC50: it is the midpoint of a concentration-inhibition curve.

Assay type in all cases: biochemical
For one experiment, the target named is PAK1 (Homo sapiens, UniProt Q13153). Nature of the experiment: In vitro kinase assay, PAK1 (Caliper EZ Reader conversion). The arrangement: purchased Carna Biosciences. The method in brief: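 Human PAK1 was preincubated with compound (6 concentrations, 4-fold dilutions) for 10 min at room temperature, then reacted with substrate mix for 30 and 60 min. Substrate conversion was read by Caliper mobility shift. IC50 was fitted by variable-slope log(inhibitor)–response, normalised to FRAX597 and buffer controls.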

Another experiment deals with c-Kit (Homo sapiens, UniProt P10721). Nature of the experiment: cKit kinase mobility shift assay. Here is the method: The effect of the compounds on the activity of cKit, RET and AXL kinases were assessed by Mobility shift assay. • 1. 1× kinase base buffer and stop buffer for testing kinases were prepared • 1-1) 1× Kinase base buffer (50 mM HEPES, pH 7.5, 0.01% Triton X-100) • 1-2) Stop buffer (100 mM HEPES, pH 7.5, 0.015% Brij-35, 0.2% Coating Reagent #3, 50 mM EDTA) • 2. Compound and assay plate preparation: the compound was diluted to 50× of the final desired highest inhibitor concentration in reaction by 100% DMSO. 100 μl of this compound dilution was transferred to a well in a 96-well plate. For example, if the highest desired concentration was 5 μM, then 250 μM of compound DMSO solution was prepared in this step. For all compounds, the compound was serially diluted by transferring 10 μl to 70 μl of 100 DMSO in the next well and so forth for a total of 5 concentrations. 100 μl of 100% DMSO was added to two empty wells for no compound control and no enzyme control in the same 96-well plate. The plate was labeled as source plate. The intermediate plate was prepared by transferring 10 μl of compound from source plate to a new 96-well plate as the intermediate plate, adding 90 μl of 1× kinase buffer to each well of the intermediate plate, mixing the compounds in intermediate plate for 10 min on shaker. 5 μl of each well from the 96-well intermediate plate were transferred to a 384-well plate in duplicates. For example, A1 of the 96-well plate was transferred to A1 and A2 of the 384-well plate. A2 of the 96-well plate was transferred to A3 and A4 of the 384-well plate, and so on. • 4. Kinase reaction: The assay plate already contained 5 μl of compound in 10% DMSO. A 2.5× enzyme solution was prepared by adding kinases (cKit, RET, or AXL) and DTT in 1× kinase base buffer. 2.5× enzyme solution was transferred to the assay plate (by adding 10 μl of 2.5× enzyme solution to each well of the 384-well assay plate). The plate was incubated at room temperature for 10 min. 2.5× peptide solution was prepared by adding FAM-labeled peptide, ATP, MgCl2 in the 1× kinase base buffer. 2.5× peptide solution was added to the assay plate by adding 10 μl of 2.5× peptide solution to each well of the 384-well assay plate. The plate was incubated at 28° C. for the specified period of time. 25 μl of stop buffer was added to stop reaction. Data was collected on Caliper.

A further experiment concerns the target HPK1 (MAP4K1) (Homo sapiens, UniProt Q92918). The experiment is described as follows: HPK1 (MAP4K1) kinase Lantha screen assay. The method, boiled down:
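Recombinant MAP4K1 preincubated 10 min with compound (6-point dilution, duplicates) in 50 mM HEPES pH 7.5, 10 mM MgCl2, then reacted with Fluorescein-PKC substrate and ATP for 90 min at room temperature. Antibody detection solution stopped reaction; after 60 min, TR-FRET read at ex 340 nm, em 520/495 nm.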

HPK1 (MAP4K1), sequence (Q92918 whole entry, species assumed): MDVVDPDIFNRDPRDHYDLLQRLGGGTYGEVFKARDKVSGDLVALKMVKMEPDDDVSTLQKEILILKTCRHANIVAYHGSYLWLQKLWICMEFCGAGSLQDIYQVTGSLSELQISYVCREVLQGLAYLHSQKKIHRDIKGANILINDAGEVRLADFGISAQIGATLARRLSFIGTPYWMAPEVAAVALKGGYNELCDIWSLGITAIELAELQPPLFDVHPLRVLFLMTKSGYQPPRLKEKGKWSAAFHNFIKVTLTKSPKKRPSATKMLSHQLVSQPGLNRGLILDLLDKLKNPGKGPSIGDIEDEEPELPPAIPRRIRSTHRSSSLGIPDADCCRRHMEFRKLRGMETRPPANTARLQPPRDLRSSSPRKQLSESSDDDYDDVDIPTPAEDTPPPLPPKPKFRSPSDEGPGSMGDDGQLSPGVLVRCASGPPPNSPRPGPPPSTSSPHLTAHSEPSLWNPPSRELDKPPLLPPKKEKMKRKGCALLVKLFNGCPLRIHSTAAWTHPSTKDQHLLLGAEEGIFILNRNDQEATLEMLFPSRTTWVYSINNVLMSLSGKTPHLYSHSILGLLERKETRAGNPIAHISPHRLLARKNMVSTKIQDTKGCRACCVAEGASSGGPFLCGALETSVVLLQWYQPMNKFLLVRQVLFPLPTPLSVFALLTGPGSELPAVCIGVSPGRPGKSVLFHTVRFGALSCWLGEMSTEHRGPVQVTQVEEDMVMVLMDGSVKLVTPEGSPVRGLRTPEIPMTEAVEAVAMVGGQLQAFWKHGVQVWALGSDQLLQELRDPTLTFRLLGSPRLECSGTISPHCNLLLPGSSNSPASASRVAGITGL
c-Kit, sequence (P10721 26-976): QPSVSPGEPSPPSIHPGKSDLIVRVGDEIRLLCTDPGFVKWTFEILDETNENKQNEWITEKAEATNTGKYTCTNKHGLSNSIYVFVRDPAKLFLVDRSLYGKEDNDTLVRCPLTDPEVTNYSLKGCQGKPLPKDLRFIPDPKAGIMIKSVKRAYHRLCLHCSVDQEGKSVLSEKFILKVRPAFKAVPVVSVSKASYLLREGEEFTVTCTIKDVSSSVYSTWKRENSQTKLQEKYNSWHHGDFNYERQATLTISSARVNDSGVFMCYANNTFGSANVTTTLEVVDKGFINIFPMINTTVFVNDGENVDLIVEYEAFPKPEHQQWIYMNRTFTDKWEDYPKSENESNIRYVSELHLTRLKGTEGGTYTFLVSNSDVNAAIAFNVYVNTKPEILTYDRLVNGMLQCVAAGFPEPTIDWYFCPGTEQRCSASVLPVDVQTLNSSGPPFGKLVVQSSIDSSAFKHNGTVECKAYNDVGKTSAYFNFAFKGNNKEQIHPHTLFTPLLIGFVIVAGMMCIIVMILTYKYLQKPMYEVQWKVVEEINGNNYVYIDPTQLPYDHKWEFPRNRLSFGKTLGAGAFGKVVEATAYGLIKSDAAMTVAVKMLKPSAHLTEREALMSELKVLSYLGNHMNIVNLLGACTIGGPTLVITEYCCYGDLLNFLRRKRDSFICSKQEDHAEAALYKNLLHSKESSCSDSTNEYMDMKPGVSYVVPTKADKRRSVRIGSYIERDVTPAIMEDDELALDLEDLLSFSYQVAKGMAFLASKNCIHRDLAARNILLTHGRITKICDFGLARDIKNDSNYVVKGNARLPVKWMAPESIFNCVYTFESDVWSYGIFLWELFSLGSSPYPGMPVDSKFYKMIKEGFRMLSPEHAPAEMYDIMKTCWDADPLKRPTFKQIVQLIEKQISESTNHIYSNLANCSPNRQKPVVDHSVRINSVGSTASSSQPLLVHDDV
PAK1, sequence (Q13153 whole entry): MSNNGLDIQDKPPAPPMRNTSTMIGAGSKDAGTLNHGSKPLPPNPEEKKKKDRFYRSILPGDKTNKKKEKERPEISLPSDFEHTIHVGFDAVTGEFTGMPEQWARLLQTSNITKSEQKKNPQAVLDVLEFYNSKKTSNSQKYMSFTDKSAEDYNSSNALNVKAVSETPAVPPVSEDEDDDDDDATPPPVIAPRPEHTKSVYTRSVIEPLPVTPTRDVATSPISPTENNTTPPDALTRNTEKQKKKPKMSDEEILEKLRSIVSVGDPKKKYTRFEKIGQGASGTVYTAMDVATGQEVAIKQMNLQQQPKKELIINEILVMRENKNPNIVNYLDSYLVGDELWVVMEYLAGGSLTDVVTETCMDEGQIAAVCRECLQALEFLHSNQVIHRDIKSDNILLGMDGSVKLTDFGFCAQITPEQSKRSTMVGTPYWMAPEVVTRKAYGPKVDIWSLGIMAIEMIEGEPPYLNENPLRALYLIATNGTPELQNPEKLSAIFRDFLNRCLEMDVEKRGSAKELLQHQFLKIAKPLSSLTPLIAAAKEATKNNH

For the compound `CN1CCN(c2ccc(Nc3ncc4c(n3)N3CCN=C3C(c3ccccc3Cl)=C4)cn2)CC1` [Compound 92, 6-(2-chlorophenyl)-N-(6-(4-methylpiperazin-1-yl)pyridin-3-yl)-8,9-dihydroimidazo[1′,2′:1,6]pyrido[2,3-d]pyrimidin-2-amine], the half-maximal inhibitory concentration (IC50) on PAK1 and on c-Kit was 100 to 10000 nM in each case.

For `Cn1cc(Nc2ncc3c(n2)N2CCN=C2C(c2ccc(Cl)cc2Cl)=C3)cn1` [Compound 102, 6-(2,4-dichlorophenyl)-N-(1-methyl-1H-pyrazol-4-yl)-8,9-dihydroimidazo[1′,2′:1,6]pyrido[2,3-d]pyrimidin-2-amine], at c-Kit, the IC50 was below 100 nM.

For `CN1CCC(n2cc(Nc3ncc4c(n3)N3CCN=C3C(c3ccc(Cl)cc3Cl)=C4)cn2)CC1` [Compound 103, 6-(2,4-dichlorophenyl)-N-(1-(1-methylpiperidin-4-yl)-1H-pyrazol-4-yl)-8,9-dihydroimidazo[1′,2′:1,6]pyrido[2,3-d]pyrimidin-2-amine], at c-Kit, the IC50 is below 100 nM.

For `CNc1ncc2c(n1)N1CCN=C1C(c1c(C)ccc(NC(=O)c3cc(C(F)(F)F)ccn3)c1F)=C2` [Compound 140, N-(2-fluoro-4-methyl-3-(2-(methylamino)-8,9-dihydroimidazo[1′,2′:1,6]pyrido[2,3-d]pyrimidin-6-yl)phenyl)-4-(trifluoromethyl)picolinamide], at c-Kit, the half-inhibitory concentration (IC50) was in the range of 100 to 10000 nM.

With `O=C(Nc1cc(C2=Cc3cnc(NC4COC4)nc3N3CCN=C23)c(Br)cc1F)c1cc(C(F)(F)F)ccn1` [Compound 188, N-(4-bromo-2-fluoro-5-(2-(oxetan-3-ylamino)-8,9-dihydroimidazo[1′,2′:1,6]pyrido[2,3-d]pyrimidin-6-yl)phenyl)-4-(trifluoromethyl)picolinamide], on c-Kit, the IC50 was below 100 nM.

Take `Cc1ccc(NC(=O)c2cc(C(F)(F)F)ccn2)cc1C1=Cc2cnc(Nc3cnn(C)c3)nc2N2CCN=C12` [Compound 195, N-(4-methyl-3-(2-((1-methyl-1H-pyrazol-4-yl)amino)-8,9-dihydroimidazo[1′,2′:1,6]pyrido[2,3-d]pyrimidin-6-yl)phenyl)-4-(trifluoromethyl)picolinamide]: the IC50 on c-Kit and on HPK1 (MAP4K1) was below 100 nM each time.

With `Cc1ccc(NC(=O)c2cc(C(F)(F)F)ccn2)cc1C1=Cc2cnc(Nc3cccc(CO)c3)nc2N2CCN=C12` [Compound 229, N-(3-(2-((3-(hydroxymethyl)phenyl)amino)-8,9-dihydroimidazo[1′,2′:1,6]pyrido[2,3-d]pyrimidin-6-yl)-4-methylphenyl)-4-(trifluoromethyl)picolinamide], the half-maximal inhibitory concentration (IC50) on c-Kit and against HPK1 (MAP4K1) was below 100 nM throughout.

For `CNc1ncc2c(n1)N1CCN=C1C(Oc1ccc(NC(=O)NC3CC3)cc1)=C2` [Compound 312, 1-cyclopropyl-3-(4-((2-(methylamino)-8,9-dihydroimidazo[1′,2′:1,6]pyrido[2,3-d]pyrimidin-6-yl)oxy)phenyl)urea], at c-Kit, the IC50 is above 10000 nM.

`CNc1ncc2c(n1)N1CCN=C1C(Oc1ccc(NC(=O)Nc3ccc(Cl)c(C(F)(F)F)c3)cc1)=C2` [Compound 313, 1-(4-chloro-3-(trifluoromethyl)phenyl)-3-(4-((2-(methylamino)-8,9-dihydroimidazo[1′,2′:1,6]pyrido[2,3-d]pyrimidin-6-yl)oxy)phenyl)urea]: the IC50 at c-Kit fell in the range of 100 to 10000 nM.

Regarding `CNc1ncc2c(n1)N1CCN=C1C(c1cc(NC(=O)NC3CC3)c(F)cc1C)=C2` [Compound 315, 1-cyclopropyl-3-(2-fluoro-4-methyl-5-(2-(methylamino)-8,9-dihydroimidazo[1′,2′:1,6]pyrido[2,3-d]pyrimidin-6-yl)phenyl)urea], the IC50 on c-Kit is above 10000 nM.

With `CNc1ncc2c(n1)N1CCN=C1C(c1cc(NC(=O)NCCC(F)(F)F)c(F)cc1C)=C2` [Compound 316, 1-(2-fluoro-4-methyl-5-(2-(methylamino)-8,9-dihydroimidazo[1′,2′:1,6]pyrido[2,3-d]pyrimidin-6-yl)phenyl)-3-(3,3,3-trifluoropropyl)urea], the IC50 at c-Kit is 100 to 10000 nM; on HPK1 (MAP4K1), above 10000 nM.

On to `CNc1ncc2c(n1)N1CCN=C1C(c1cc(NC(=O)NCCC(C)(C)C)c(F)cc1C)=C2` [Compound 317, 1-(3,3-dimethylbutyl)-3-(2-fluoro-4-methyl-5-(2-(methylamino)-8,9-dihydroimidazo[1′,2′:1,6]pyrido[2,3-d]pyrimidin-6-yl)phenyl)urea], for which the values for the IC50 at c-Kit and against HPK1 (MAP4K1) were below 100 nM and 100 to 10000 nM, respectively.

With `CNc1ncc2c(n1)N1CCN=C1C(c1cc(NC(=O)Nc3ccccc3)c(F)cc1Br)=C2` [Compound 326, 1-(4-bromo-2-fluoro-5-(2-(methylamino)-8,9-dihydroimidazo[1′,2′:1,6]pyrido[2,3-d]pyrimidin-6-yl)phenyl)-3-phenylurea], at c-Kit, the IC50 was below 100 nM.

In the case of `CNc1ncc2c(n1)N1CCN=C1C(c1cc(NC(=O)Nc3ccccc3Cl)c(F)cc1Br)=C2` [Compound 327, 1-(4-bromo-2-fluoro-5-(2-(methylamino)-8,9-dihydroimidazo[1′,2′:1,6]pyrido[2,3-d]pyrimidin-6-yl)phenyl)-3-(2-chlorophenyl)urea], on c-Kit, the half-maximal inhibitory concentration (IC50) was below 100 nM.

Turning to `O=C(Nc1ccccc1)Nc1cc(C2=Cc3cnc(NC4COC4)nc3N3CCN=C23)c(Br)cc1F` [Compound 328, 1-(4-bromo-2-fluoro-5-(2-(oxetan-3-ylamino)-8,9-dihydroimidazo[1′,2′:1,6]pyrido[2,3-d]pyrimidin-6-yl)phenyl)-3-phenylurea], the IC50 at c-Kit is below 100 nM.

On to `O=C(Nc1cc(C2=Cc3cnc(NC4COC4)nc3N3CCN=C23)c(Br)cc1F)Nc1ccccc1Cl` [Compound 329, 1-(4-bromo-2-fluoro-5-(2-(oxetan-3-ylamino)-8,9-dihydroimidazo[1′,2′:1,6]pyrido[2,3-d]pyrimidin-6-yl)phenyl)-3-(2-chlorophenyl)urea], for which the IC50 at c-Kit was below 100 nM.

As for `CNc1ncc2c(n1)N1CCN=C1C(c1cc(NC(=O)Nc3ccccc3Cl)c(F)cc1C)=C2` [Compound 331, 1-(2-chlorophenyl)-3-(2-fluoro-4-methyl-5-(2-(methylamino)-8,9-dihydroimidazo[1′,2′:1,6]pyrido[2,3-d]pyrimidin-6-yl)phenyl)urea], the IC50 at c-Kit is below 100 nM; on HPK1 (MAP4K1), 100 to 10000 nM.

For `CCNc1ncc2c(n1)N1CCN=C1C(c1cc(NC(=O)Nc3ccccc3Cl)c(F)cc1C)=C2` [Compound 332, 1-(2-chlorophenyl)-3-(5-(2-(ethylamino)-8,9-dihydroimidazo[1′,2′:1,6]pyrido[2,3-d]pyrimidin-6-yl)-2-fluoro-4-methylphenyl)urea], the IC50 on c-Kit was below 100 nM.

In the case of `CNc1ncc2c(n1)N1CCN=C1C(c1cc(NC(=O)Nc3ccccc3F)c(Cl)cc1C)=C2` [Compound 334, 1-(2-chloro-4-methyl-5-(2-(methylamino)-8,9-dihydroimidazo[1′,2′:1,6]pyrido[2,3-d]pyrimidin-6-yl)phenyl)-3-(2-fluorophenyl)urea], the IC50 on c-Kit is below 100 nM.

On to `CNc1ncc2c(n1)N1CCN=C1C(c1cc(NC(=O)Nc3ccc(Cl)cc3F)c(F)cc1C)=C2` [Compound 337, 1-(4-chloro-2-fluorophenyl)-3-(2-fluoro-4-methyl-5-(2-(methylamino)-8,9-dihydroimidazo[1′,2′:1,6]pyrido[2,3-d]pyrimidin-6-yl)phenyl)urea], for which, at c-Kit, the IC50 is below 100 nM.

For the compound `CNc1ncc2c(n1)N1CCN=C1C(c1cc(NC(=O)Nc3ccccc3F)c(F)cc1C)=C2` [Compound 338, 1-(2-fluoro-4-methyl-5-(2-(methylamino)-8,9-dihydroimidazo[1′,2′:1,6]pyrido[2,3-d]pyrimidin-6-yl)phenyl)-3-(2-fluorophenyl)urea], the half-maximal inhibitory concentration (IC50) at c-Kit was below 100 nM.
